The numbers were not newly measured in patent US20240182984A1, “METHODS FOR ASSESSING PROLIFERATION AND ANTI-FOLATE THERAPEUTIC RESPONSE” (priority 2021, published 2024), which cites them from elsewhere.

For this data set, the system named is bronchioid subtype of LUAD. As to conditions: compared with other LUAD subtypes.

Take `Nc1nc2[nH]cc(CCc3ccc(C(=O)N[C@@H](CCC(=O)O)C(=O)O)cc3)c2c(=O)[nH]1` [pemetrexed]: the “sensitivity of the bronchioid subtype of LUAD (Group 1)” value was “more sensitive”.
